Data: PubChem BioAssay (NCI)
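Method: 48-hour compound exposure of cells in 96-well plates, five concentrations, linear interpolation of endpoints. GI50 marks 50% less growth. TGI: concentration producing complete growth inhibition.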

Columns and labels:
Test in all cases: growth of human tumour cells (NCI), 48 h
M14 melanoma = tested on: M14 melanoma
OVCAR-4 ovarian = tested on: OVCAR-4 ovarian
U251 CNS = tested on: U251 CNS
HS 578T breast = tested on: HS 578T breast
KM20L2 colon = tested on: KM20L2 colon
K-562 leukemia = tested on: K-562 leukemia
SR leukemia = tested on: SR leukemia
DLD-1 colon = tested on: DLD-1 colon
DMS 114 small cell lung = tested on: DMS 114 small cell lung
SNB-78 CNS = tested on: SNB-78 CNS
LXFL 529 NSCLC = tested on: LXFL 529 NSCLC

SMILES | TGI (M14 melanoma) [µM] | TGI (OVCAR-4 ovarian) [µM] | TGI (U251 CNS) [µM] | TGI (HS 578T breast) [µM] | GI50 (KM20L2 colon) [µM] | TGI (KM20L2 colon) [µM] | TGI (K-562 leukemia) [µM] | TGI (SR leukemia) [µM] | TGI (DLD-1 colon) [µM] | TGI (DMS 114 small cell lung) [µM] | TGI (SNB-78 CNS) [µM] | TGI (LXFL 529 NSCLC) [µM] | GI50 (OVCAR-4 ovarian) [µM] | GI50 (HS 578T breast) [µM]
Cc1cnc2c(c1)C(=O)N(c1ccc(Br)cc1)S2(=O)=O | > 100 | > 100 | > 100 | > 100 |  |  |  |  |  |  |  |  |  | 
O=C(N/N=C/c1cc(Cl)cc(Cl)c1[O-])c1ccccc1O.O=C(N/N=C/c1cc(Cl)cc(Cl)c1[O-])c1ccccc1O.[Fe+2] | 34.7 | 33.7 | 22.6 |  | 14.1 | 27.9 | > 100 | 35.8 |  |  |  |  |  | 
Cc1ccc2nc(-c3nccn3C)cc(C(=O)NC(C)CN(C)C)c2c1 (configuration not stated) | > 100 |  | > 100 | > 100 |  |  |  |  |  |  |  |  |  | 
Clc1ccc2c(c1)CC1C[N+]3=C(CCCCC3)C1=C2 (configuration not stated) | > 100 | > 100 | > 100 | > 100 |  |  | > 100 |  |  |  |  |  |  | 
CC(C)(C)C1CCC2c3c([nH]c4ccccc34)C3C(=O)N(c4cc(Cl)ccc4Cl)C(=O)C3C2C1 (configuration not stated) | > 100 |  |  | > 100 |  |  | > 100 |  |  |  |  |  |  | 
CCOC(=O)C(CCSC)(CCSC)C(=O)OCC | > 100 | > 100 | > 100 | > 100 |  |  | > 100 |  |  |  |  |  |  | 
COc1cccc(C2c3cc4c(cc3OC(NNC(N)=O)C2C)OCO4)c1OC (configuration not stated) | 40.6 |  | 68.2 | 45.9 |  |  | 88 | 18.8 |  |  |  |  |  | 
CC(Cn1c(=O)oc2ccccc21)N(C)C (configuration not stated) | > 100 |  | > 100 | > 100 |  |  | > 100 | > 100 |  |  |  |  |  | 
Oc1ccccc1CNCc1ccccc1O | > 100 | > 100 | > 100 | > 100 |  |  | > 100 |  |  |  |  |  |  | 
O=C(Nc1ccccc1)c1cc2cc(CCl)ccc2oc1=O | > 100 | > 100 | > 100 | 63.9 |  |  | > 100 | > 100 |  |  |  |  |  | 
O=C(O)c1ccccc1/C=N\N(CCO)C1=NCCN1 | > 100 | > 100 | > 100 | > 100 |  |  | > 100 | > 100 |  |  |  |  |  | 
O=C1/C(=C/c2cccc([N+](=O)[O-])c2)Cc2ccccc21 | > 100 | > 100 | > 100 | > 100 |  |  | > 100 | > 100 |  |  |  |  |  | 
Cc1ccc(C(CCO)CCO)nc1 | > 100 | > 100 | > 100 | > 100 |  |  |  | > 100 |  |  |  |  |  | 
O=C1Nc2n[nH]c(=S)n2NC12c1ccccc1-c1ccccc12 | > 100 | 39.1 | > 100 | > 100 |  |  |  | > 100 |  |  |  |  |  | 
CN(C)C1(N(C)C)Oc2c(c(=O)n(C)c(=O)n2C)C(c2ccc(F)cc2)C1(F)F (configuration not stated) | > 100 | > 100 | > 100 |  |  |  |  |  |  |  |  |  |  | 
CC(C)(CN1CCCCC1)C(=O)CC(SCCS(=O)(=O)O)c1ccccc1 (configuration not stated) | 26 | 49.4 | 53.2 | 90.1 |  |  | 29.6 | 13.9 |  |  |  |  |  | 

SMILES | TGI (M14 melanoma) [µM] | TGI (OVCAR-4 ovarian) [µM] | TGI (U251 CNS) [µM] | TGI (HS 578T breast) [µM] | GI50 (KM20L2 colon) [µM] | TGI (KM20L2 colon) [µM] | TGI (K-562 leukemia) [µM] | TGI (SR leukemia) [µM] | TGI (DLD-1 colon) [µM] | TGI (DMS 114 small cell lung) [µM] | TGI (SNB-78 CNS) [µM] | TGI (LXFL 529 NSCLC) [µM] | GI50 (OVCAR-4 ovarian) [µM] | GI50 (HS 578T breast) [µM]
CCCCCCc1cc2cc(-c3cn4ccccc4n3)c(=O)oc2cc1O | 16.1 | 17.5 | 10.2 |  |  |  | > 40.3 | 18.8 |  |  |  |  |  | 
O=S1(=O)OCCOS(=O)(=O)C1(Br)Br | > 100 | > 100 |  |  |  |  | > 100 | > 100 | > 100 | > 100 | > 100 | > 100 |  | 
COc1cc(C2SCC(=O)N2c2ccc(Cl)cc2)cc(OC)c1OC (configuration not stated) | > 57.8 | > 100 | > 100 | > 100 |  |  | > 52.9 | 39.2 |  |  |  |  |  | 
CC(c1ccccc1)n1c2ccccc2c2c(N)ncnc21 (configuration not stated) | 34.1 | 31.2 | 30.5 | 47 |  |  | 71.9 | 56.7 |  |  |  |  |  | 
CC1=NC(=O)CNN1C1=NNC2(C(=O)N1)c1ccccc1-c1ccccc12 | > 100 | > 100 | > 100 | > 100 |  |  | > 100 | > 100 |  |  |  |  |  | 
C[C@@]12C[C@@H](c3ccccc3O1)N1CCCSC1=N2 | > 100 | > 100 | > 100 | > 100 |  |  | > 100 | > 100 |  |  |  |  |  | 
CCOC(=O)c1c(Br)c(-c2ccc([N+](=O)[O-])cc2)c(Br)n1C | > 10 | > 10 | > 10 | > 10 |  |  | > 10 | > 10 |  |  |  |  |  | 
COC(=O)CCc1cc(OC)c2oc(-c3ccc(OC)c(OC)c3)c(CO)c2c1 | > 100 | > 100 | > 100 | > 100 |  |  | > 100 | > 100 |  |  |  |  |  | 
C/C(CC(=O)Nc1cccc([N+](=O)[O-])c1)=N/NC(N)=S | > 100 |  | > 100 |  |  | > 100 | > 100 |  | > 100 | > 100 |  | > 100 |  | 
CC(=O)O[C@H]1C(=O)[C@@]2(C)[C@H]([C@H](OC(=O)c3ccccc3)[C@]3(O)C[C@H](OC(=O)[C@H](O)[C@@H](NC(=O)OC(C)(C)C)c4ccco4)C(C)=C1C3(C)C)[C@]1(OC(C)=O)CO[C@@H]1C[C@@H]2O | 25.2 | > 50 | > 16.1 | < 0.005 |  |  | 13.4 | > 29 |  |  |  |  |  | 
Cc1cc(S(=O)(=O)Nc2nnc3c(Cl)cc(C(F)(F)F)cn23)c(S)cc1Cl | > 100 | > 100 | > 100 | > 100 |  |  | > 100 | > 100 |  |  |  |  |  | 
CCOC(=O)NC(C(F)(F)F)(C(F)(F)F)P(=O)(OCC)OCC | > 100 | > 100 | 79.5 | > 100 |  |  | > 100 |  |  |  |  |  |  | 
Cn1cc(-c2csc(-c3cn(CCCN4CCCCC4)c4ccc(Br)cc34)n2)c2cccnc21 |  | 4.19 |  | 5.41 |  |  |  |  |  |  |  |  | 2.02 | 2.09
COc1c(N2CCCCC2)c2c(=O)c3ccccc3oc2c2c3ccccc3n(C)c12 | > 100 | > 100 | > 100 | > 100 |  |  | > 100 |  |  |  |  |  |  | 
S=C1C(CCCOCc2ccccc2)C2CCCC23CC2(CCN13)OCCS2 (configuration not stated) | > 10 | > 10 | > 10 | > 10 |  |  | > 10 | > 10 |  |  |  |  |  | 
